Assay results reported in US20250295628A1 (priority 2022, published 2025).
Marks after values point to notes of the source that are not given here.

How the values were obtained:
[1] = test system: rabbit VX2 liver tumor animal model; assay: Cisplatin plus composition 3-preparation in rabbit VX2 liver tumor model (Example 34); format: in vivo, New Zealand rabbits; details: cisplatin 4 mg/kg once a week alone, 4 weeks
Method: SPF grade New Zealand rabbits, 4-8 weeks old, 1.8-2.2 kg, with a standard diet and free access to water, were kept in an environment of 12-hour light/dark cycle with a constant temperature of (23±2° C.) and a humidity of (55±15%). The animals were anesthetized, guided by ultrasound, and VX2 hepatoma cells were introduced into the liver by minimally invasive approach, After monitoring New Zealand rabbits for 14 days, and tumor size was monitored with ultrasound; rabbits were randomly divided into 4 groups of 10 animals in each group according to tumor size and body weight, and drug treatment was started on day 15. Rabbits in the control group were intravenously injected with 0.9% sodium chloride injection through the ear vein. […] All New Zealand rabbits were treated for 4 weeks.
Tumor volume was estimated using the formula V=π(a×b^2)/6, where a and b were the longest and shortest diameters of the tumor measured using calipers. The weights of rabbits were monitored every 3-4 days during the experiment, and rabbited were sacrificed at the end of treatment; blood was collected, AST, ALT and CREA were tested, and the results are shown in Table 30. After anesthetizing each rabbit with Sutai 50+ tachypnosis 0.1 ml/kg, carotid artery phlebotomy was used as a termination procedure.

[2] = test system: lead poisoning model rats; assay: Therapeutic effect on lead poisoning in SD rats (Example 22); format: in vivo; details: EDTA 93.5 mg/kg, 4 weeks
Method: 30 SD rats with a body weight of 180˜200 g were taken; rats in the blank group freely drank deionized water containing 12.5 μL acetic acid for 3 weeks.
Rats in all groups were administrated once a day for 5 days/week for a total of 4 weeks. Rats in the blank group and model group were administered by intravenous drip with normal saline, and rats in treating groups were administered with normal saline solution of the corresponding drug; the administration volume of all groups was the same, with a dripping rate of 30 drops/min for a time of about 1 h, 1 time/day, 5 days/week; the grouping and administration dose of rats are shown in Table 14.

[3] = test system: thallium poisoning model rats; assay: Therapeutic effect on thallium poisoning in Wistar rats (Example 24); format: in vivo; details: EDTA 93.5 mg/kg, 4 weeks
Method: After successful molding, rats were divided to 10 rats in the blank group and the remaining 50 rats, and the grouping and administration dose are shown in Table 19. Rats in all groups were administrated once a day for 5 days/week for a total of 4 weeks.
Rats were sacrificed 24 h after administration on the last day; blood, kidney, brain and liver were taken, and thallium contents in these organs were detected by ICP-MS, and the test results are shown in Table 20.

[4] = test system: mixed chromium, cobalt, nickel and manganese poisoning model rabbits; assay: Therapeutic effect on mixed poisoning of chromium, cobalt, nickel and manganese in rabbits (Example 26); format: in vivo, New Zealand rabbits; details: EDTA 93.5 mg/kg, 3 days of treatment
Method: 40 New Zealand rabbits with a weight of 1.5˜2.0 kg were taken, and normal saline was injected intravenously at the ear margin of rabbits of the blank group for 5 days. A mixed solution containing 5 mg/ml CrCl3, 3 mg/ml CoCl2, 1 mg/ml NiCl2 and 2 mg/ml MnCl2 was injected intravenously at the ear margin of rabbits of poisoning groups with a dose of 2 ml/kg for 5 days, and observed for 25 days, thus resulting in mixed poisoning models of chromium, cobalt, nickel and manganese in New Zealand rabbits.
After successful molding, there were 8 rabbits in the blank group and 24 rabbits in mixed poisoning groups. Rabbits in all groups were given once daily for 3 days. Rabbits in the blank group and the model group were administered by intravenous dripping with normal saline, and rabbits in the treating groups were administered with a normal saline solution containing the corresponding drug. The administration volume of all groups was the same, with a dripping rate of 30 drops/min, an administration time of about 2 h, 1 time/day for 3 days; the grouping and administration dose of New Zealand rabbit in different groups were shown in Table 21. 24-hour urine was collected every day for a total of 3 days, and the total amounts of chromium, cobalt, nickel and manganese excreted through urine during the 3 days were calculated, as shown in Table 22.

[5] = test system: arsenic poisoning model rats; assay: Therapeutic effect on arsenic poisoning in Wistar rats (Example 23); format: in vivo; details: EDTA 93.5 mg/kg
Method: 60 Wistar rats with a body weight of 180˜200 g were taken; rats in a blank group freely drank deionized water for 3 months; rats in arsenic poisoning groups freely drank an aqueous solution containing 100 mg/L·As2O3 for continuous 3 months, with a water mount of 20 ml per day, equivalent to an oral dose of 10 mg/kg, resulting in arsenic poisoning of drinking water-type in rats.
After successful molding, rats were divided to 10 rats in blank group and the remaining 50 rats. All groups were administrated once a day for 5 days/week for a total of 4 weeks. Rats in the blank group and the model group were administered by intravenous drip with normal saline, and rats in the treating group were administered with a normal saline solution of the corresponding drug; all groups had the same administration volume, a drip rate of 30 drops/min, and an dripping time of about 1 h, 1 time/d, 5 d/week, for a total of four weeks.
Urine was collected on day 1 and day 26, arsenic excretion was measured; blood and kidney of rats were taken 24 hours after the 26th day of administration, and blood arsenic concentrations and renal arsenic concentrations were detected with ICPMS; the results are shown in Table 18.

N.N.[Cl][Pt][Cl] [Cisplatin, cisplatin]
ALT [1]: 86.68 ± 26.88 U/L | AST [1]: 89.20 ± 13.66 U/L | CREA [1]: 470.35 ± 85.57 µmol/L

O=C(O)CN(CCN(CC(=O)O)CC(=O)O)CC(=O)O [EDTA, ethylenediaminetetraacetate]
Blood concentration of Ca2+ [2]: 89.31 ± 5.28 µg/g | Blood concentration of Cu2+ [2]: 754.21 ± 70.59 µg/g | Blood concentration of Fe3+ [2]: 194.72 ± 19.29 µg/g | Blood concentration of Mg2+ [2]: 43.61 ± 3.32 µg/g | Blood concentration of Zn2+ [2]: 2942.15 ± 176.08*^ΔΔ μg/g | Lead in blood [2]: 1218.69 ± 129.33 µg/L | Lead in kidney [2]: 16.54 ± 4.67 ^ μg/g | Lead in liver [2]: 0.47 ± 0.28 µg/g | Thallium in blood [3]: 836.69 ± 168.83 µg/L | Thallium in kidney [3]: 12.54 ± 4.48 µg/g | Thallium in liver [3]: 4.27 ± 2.18 µg/g | Chromium in urine, total excreted in 3 days [4]: 178.48 ± 42.69 µg | Cobalt in urine, total excreted in 3 days [4]: 162.28 ± 44.97 ^ μg | Manganese in urine, total excreted in 3 days [4]: 169.52 ± 32.63 ^ μg | Nickel in urine, total excreted in 3 days [4]: 188.28 ± 63.17 ^ μg | Total arsenic in urine on day 1 [5]: 3.27 ± 1.84 µg | Total arsenic in urine on day 26 [5]: 3.18 ± 1.35 µg | Arsenic in blood ([5]; 24 hours after the 26th day): 1362.98 ± 319.58 µg/L | Arsenic in kidney ([5]; 24 hours after the 26th day): 6.08 ± 2.35 µg/g
